Data set [1] is described as follows: Rat pharmacokinetic studies of prodrug and released riluzole (IV or oral). Conditions: for clearance: read-out: Compound of the disclosure Cl (converted); for Vd: read-out: Compound of the disclosure Vss. It counts as in vivo, Sprague-Dawley rats. The method, then:
Rat Pharmacokinetic Studies of the Compounds of the Disclosure:
Blood samples were collected at pre-determined time points including a 0 h time point and usually between 7 and 8 additional time points not exceeding a 24 h period.
Plasma samples were extracted and analyzed using the methods described in Plasma Sample Extraction and Analysis. All data are expressed as ng/mL of the free base. Samples that were below the limit of quantification (0.5 ng/mL) were not used in the calculation of averages.
Pharmacokinetic parameters were calculated from the time course of the plasmaconcentrations. Pharmacokinetic parameters were determined with Phoenix Winnonlin (v6.3) software using a non-compartmental model. The maximum plasma concentration (Cmax) and time to the maximum plasma concentration (Tmax) of the compound of the disclosure were observed from the data. The area under the concentration-time curve (AUC) of the compound of the disclosure was calculated using the trapezoidal formula with calculation to the last quantifiable data point, and to infinity if applicable. Plasma half-life (t½) was calculated from 0.693/slope of the terminal elimination phase. Mean residence time, MRT, was calculated by dividing the area under the moment curve (AUMC) by the AUC. Any samples below the limit of quantitation (0.5 ng/mL) were treated as zero for pharmacokinetic data analysis.
Plasma Sample Extraction and Analysis:
Analytical stock solutions (1.00 mg/mL of the free compound of the disclosure) were prepared in DMSO. Standards were prepared in diluted matrix containing 1 part 10% formic acid and 9 parts Sprague-Dawley rat plasma containing sodium heparin as the anticoagulant (pre-diluted with 1 part of 0.5M citric acid and 9 parts whole blood). Working solutions were prepared in 50:50 acetonitrile:water. Working solutions were then added to plasma to make calibration standards to final concentrations of 1000, 500, 100, 50, 10, 5, 1, and 0.5 ng/mL. Standards contained both the test article and riluzole. Standards were treated identically to the study samples.
Plasma samples were extracted via acetonitrile precipitation on a Tomtec Quadra 96-Model 320 liquid handling system in a 96-well plate format.

A short description of data set [2]: PK in fasted male mice, prodrug and released riluzole (IV, PO). Conditions: mouse, in vivo; for AUC(0-t): read-out: Prodrug AUClast (Mean).
Another data set has as its system Melanoma C8161 cells. In words: Inhibition of human melanoma cell xenograft growth. It counts as in vivo, nude mice. Conditions: P<0.01 (t test). The method, then:
Melanoma C8161 cells were inoculated s.c. into nude mice at […]. […] Mice were treated every day for 21 days, and tumor sizes were measured twice weekly with a Vernier caliper.

The subject of data set [3] is Stage III and IV melanoma. Conditions: 14 days of treatment, cited from earlier work.
Setting [4] is: rat, plasma, fasted male Sprague Dawley rats, IV, prodrug dose 2.8 mg/Kg, read-out: Compound of the disclosure AUClast.
Setting [5] is: rat, plasma, fasted male Sprague Dawley rats, IV, prodrug dose 2.8 mg/Kg.
Where [6] appears, read: rat, plasma, fasted male Sprague Dawley rats, PO 5 mg/kg.
Where [7] appears, read: fasted male Sprague Dawley rats, IV, prodrug dose 2.8 mg/Kg.
Where [8] appears, read: fasted male Sprague Dawley rats, PO 14.6 mg/kg.

Where two headings read alike, the source gives them in different places.

The Cmax is the highest concentration seen after dosing. Usually Tmax stands for the time from dosing to the highest level.

As for `CN(CC(=O)Nc1nc2ccc(OC(F)(F)F)cc2s1)C(=O)CNC(=O)CN` [Example 204, 2-Amino-N-{[methyl({[6-(trifluoromethoxy)-1,3-benzothiazol-2-yl]carbamoyl}methyl)carbamoyl]methyl}acetamide], the AUC(0-t) in data set [1] (setting [4]) is 232 ng·h/mL; in data set [1] (rat, plasma, fasted male Sprague Dawley rats, PO 5 mg/kg, read-out: Prodrug AUClast (Mean)), 0.9 ng·h/mL; in data set [2] (IV 1 mg/kg) it was 532 ng·h/mL; in data set [2] (PO 5 mg/kg), 3.85 ng·h/mL. For the same compound, the clearance in data set [1] (setting [5]) was 220 mL/min/kg; in data set [2] (IV 1 mg/kg, read-out: Prodrug CL (Mean) (converted)), 32.3 mL/min/kg. For the same compound, the Vd in data set [1] (setting [5]) is 2.47 L/kg; in data set [2] (IV 1 mg/kg, read-out: Prodrug Vss (Mean)), 0.46 L/kg. Besides, the half-life was 14.2 min in data set [1] (rat, plasma, fasted male Sprague Dawley rats, IV, prodrug dose 2.8 mg/Kg, read-out: Compound of the disclosure t1/2 (converted)) and 17.4 min in data set [2] (IV 1 mg/kg, read-out: Prodrug T1/2 (Mean) (converted)). Further, the results for the peak concentration (Cmax) in data set [1] (setting [6]) and in data set [2] (PO 5 mg/kg) were 1.84 ng/mL and 4.71 ng/mL, respectively. Further, the values for the Tmax in data set [1] (setting [6]) and in data set [2] (PO 5 mg/kg) were 16.8 min and 19.8 min, respectively. Further, the AUC(0-inf) in data set [2] (IV 1 mg/kg, read-out: Prodrug AUCinf (Mean)) is 533 ng·h/mL.

Take `CN(CC(=O)Nc1nc2ccc(OC(F)(F)F)cc2s1)C(=O)CNC(C)(C)C` [Example 125, 2-(tert-butylamino)-N-methyl-N-(2-oxo-2-((6-(trifluoromethoxy)benzo[d]thiazol-2-yl)amino)ethyl)acetamide]: in the data set with Melanoma C8161 cells (4.9 mg/kg (threefold lower in molar terms) p.o. gavage every day for 21 days), the “Tumor volume vs untreated or vehicle-treated controls” value is “significant reduction in tumor volume”. For the same compound, in the data set with Melanoma C8161 cells (14.6 mg/kg (equimolar to riluzole) p.o. gavage every day for 21 days), the “Tumor volume vs untreated or vehicle-treated controls” value is listed as “significant reduction in tumor volume”. In addition, in data set [1] (setting [7]), the “Compound of the disclosure AUClast” value came out at 1526 ng·h/mL, the “Compound of the disclosure Cl” value was found to be 29.7 mL/min/kg and the “Compound of the disclosure Vss” value was found to be 3.57 L/kg. The “Compound of the disclosure t1/2” value in data set [1] (fasted male Sprague Dawley rats, IV, prodrug dose 2.8 mg/Kg, 2.8 mg/kg) stood at 115 min. In addition, in data set [1] (setting [8]), the “Prodrug AUClast (Mean)” value came out at 2259 ng·h/mL, the “Prodrug Cmax (Mean)” value is on record as 213 ng/mL, the “Prodrug t1/2 (Mean)” value is 228 min and the “Prodrug tmax (Mean)” value came to 108 min. Further, the “Half life on conversion to Riluzole” value in data set [1] (intravenous administration) is given as “moderate to long half life”. Further, in data set [1] (oral administration), the “Half life on conversion to Riluzole” value is recorded as “long half life” and the “Oral bioavailability” value was “high oral bioavailability”. For the same compound, the AUC(0-t) in data set [1] (setting [4]) stood at 1600 ng·h/mL. In addition, in data set [1] (setting [5]), the clearance is 27.8 mL/min/kg and the Vd turned out to be 3.51 L/kg.

`Nc1nc2ccc(OC(F)(F)F)cc2s1` [riluzole]: the results for the “Patients with clinical or radiologic evidence of tumor response” value in data set [3] (listed as Riluzole) and in data set [3] were “four of 12” and “four of twelve”, respectively.

Source of the values: patent US10639298B2 (Biohaven Pharmaceutical Holding Company Ltd., priority 2015, dated 2020).
